In test [1] the test system is atherosclerosis in apoE−/−;LDLr−/− mice. Put plainly: Evaluation of atherosclerosis (intima volume, descending thoracic aorta). The class given is in vivo. The note with it: bisphenol for 14 weeks. The procedure: Aortic lesions were assessed in segments centered around the third pair of intercostal artery branches in the descending thoracic aorta. Briefly, the fixed aortas were dehydrated in ethanol, cleared with xylene and embedded in paraffin. Serial sections (10 in total; each 2-3 μm thick and 100 μm apart) were cut and stained using Weigerts hematoxylin-van Gieson. Aortic thickening was assessed as the total volume of intima in the segment investigated in bisphenol-treated versus control samples.
Aortic volumes were determined by planimetry, using a Lucivid device (MicroBrightField, Colchester, Vermont, […]) attached to a Leitz DRM microscope that allowed the superposition of a computer monitor onto the cross sectional image.

The test system of another test is apoE−/−;LDLr−/− mice. Put plainly: Plasma lipid and vitamin E levels. It is filed as in vivo. The following applies: chow with 0.03% bisphenol, 14 weeks. The protocol:
Male apoE−/−;LDLr−/− mice (59 total), were maintained on standard R3 chow from weaning to 8 weeks of age (young controls, n=9). Thereafter mice received R3 chow with (n=25) or without supplemented bisphenol (n=25) for an additional 14 weeks. Standard R3-mouse chow was fortified with bisphenol at 0.03% (w/w), a level of supplementation shown in pilot experiments to afford circulating concentrations of the drug of ˜200 μM, considered suitable to test the effect of the co-antioxidant on atherogenesis in this animal model. At 22 weeks of age 10 and 15 mice of each group were used for biochemical and histological analyses, respectively. […]
Analyses of oxidised and non-oxidised lipids were carried out by RP-HPLC as described in Example 1 except that in some instances UV234 nm rather than post-column chemiluminescence detection was used to measure C18:2-OOH and the corresponding hydroxides (together referred to as CE-O(O)H) which show similar retention times under these chromatographic conditions. α-TQ, α-TOH, α-tocotrienol, D-isosascorbate and ascorbate were determined by HPLC with electrochemical detection. For oxidation of plasma, unesterified cholesterol (which remained non-oxidised in these experiments) was employed as internal standard for all polyunsaturated, lipid-soluble components analysed. […] All compounds were quantified by peak area comparison with authentic standards. […]

For test [2], the system named is apoE−/−;LDLr−/− mouse aortae. Put plainly: Aqueous and lipophilic parameters of aortic homogenates. The class given is in vivo, mice. The following applies: for Aortic Ascorbate: apoE−/−;LDLr−/− mice. The protocol:
Mouse aortas were excised as follows: after bleeding, the heart was perfused with Dulbecco's phosphate-buffered saline containing 100 μM BHT and 1 mM EDTA (maximum pressure 80 mm Hg) through the left ventricle, the right side chamber being opened to allow flow. For histological samples only, the vasculature was subsequently fixed with formal saline. The hearts and entire aortas from all treatment groups were removed and immediately cleaned of fat and connective tissue. Aortas for biochemical analyses were frozen immediately ([…]) without formalin fixation.
Cleaned aortic segments were thawed, blotted, pooled (n=7 or 8), weighed, added to 2 mL of argon-flushed phosphate-buffered saline (to give ˜40 mg wet tissue/mL) containing BHT (100 μM) and EDTA (1 mM). The tissue was minced with scissors, isoascorbate (5 μM) and α-tocotrienol (1 μM) added as internal standards for ascorbate and vitamin E (including α-TQ), respectively, and the samples transferred to a polytetrafluoroethylene-lined glass tube and homogenised at 4° C. for 5 minutes using a teflon piston rotating at 500 r.p.m. For recovery of oxidised lipids, [^3H]-Ch18:2-OH was incorporated into human LDL and added to the vessel prior to homogenisation. […] For ascorbate measurement, raw homogenate (50 μL) was added to metaphosphoric acid (5% v/v, 50 μL) and frozen on dry ice. Immediately before HPLC analysis, the aliquots were thawed and diluted with phosphate buffer (50 μL, 250 mM, pH 7.4), to adjust the pH. For the analyses of lipids, the remaining homogenate (˜1.8 mL) was divided into 4×450 μl aliquots and each extracted with chilled methanol (2 mL) and hexane (10 mL). Hexane phases were combined and evaporated to dryness and the residue resuspended in isopropanol (200 μL).
Analyses of oxidised and non-oxidised lipids were carried out by RP-HPLC as described in Example 1 except that in some instances UV234 nm rather than post-column chemiluminescence detection was used to measure C18:2-OOH and the corresponding hydroxides (together referred to as CE-O(O)H) which show similar retention times under these chromatographic conditions. α-TQ, α-TOH, α-tocotrienol, D-isosascorbate and ascorbate were determined by HPLC with electrochemical detection. For oxidation of plasma, unesterified cholesterol (which remained non-oxidised in these experiments) was employed as internal standard for all polyunsaturated, lipid-soluble components analysed. Bisphenol and diphenoquinone were analysed by RP-HPLC: flow 1.5 mL/min, 100% solvent A (MeCN/MeOH/H20 10:10:3, v/v/v) for 0-15 min monitored at 270 nm, followed by 50% solvent A and B (MeCN/MeOH 1:1, v/v) for 15-22 min at 242 nm and then 100% B for 22-28 min at 420 nm. Bisphenol and diphenoquinone eluted at 9 and 27 min, respectively. All compounds were quantified by peak area comparison with authentic standards. Where indicated, total cholesterol and triglyceride were assayed enzymatically (Boehringer, Mannheim, Germany).
Unless otherwise stated lipid and antioxidant levels are expressed as pmol/mg protein. LH, lipid containing bisallylic hydrogens. §Values are expressed as nmol/mg protein. Protein ranged from 2.4 - 3.3 mg/mL. ¶Value given represents ratio ×10^3. †Mice were ranked in order of plasma concentration of bisphenol, then corresponding aortae were pooled into groups of 7 and 8 on the basis of plasma drug-levels giving two distinct groups. Low and high bisphenol correspond to 106±40 and 212±50 μM, respectively. Control aortas were pooled randomly into two groups of 7 and 8 respectively.

Test [3] has as its system ballooned New Zealand White rabbits. Nature of the test: Re-endothelialization in cholesterol-fed and normal chow fed ballooned rabbits. The class given is in vivo. The source says: Results are from two separate experiments and represent mean±SD of six (cholesterol diet) and five animals (normal diet) per group. Asterisk indicates statistically significant higher values compared with corresponding controls, with p-values of 0.002, 0.015 and 0.025 for *, ** and * respectively.

The mark [4] stands for this setting: 2% Cholesterol-fed ballooned rabbits.
The mark [5] stands for this setting: Normal Chow fed ballooned rabbits.

Marks after values point to notes of the source that are not given here.

`CC(C)(C)c1cc(-c2cc(C(C)(C)C)c(O)c(C(C)(C)C)c2)cc(C(C)(C)C)c1O` [Bisphenol, bisphenol]: the “lesion size (intimal volume, descending thoracic aorta) vs age-matched controls” value in test [1] was “substantially decreased”. For the same molecule, the “Plasma Triglycerides” value in the test with apoE−/−;LDLr−/− mice is on record as 6.3 (0.5) mm. Also, in test [2] (Bisphenol [high]), the “Aortic C” value is listed as 190 nmol/mg protein, the “Aortic C18:2” value was 13.3 nmol/mg protein, the “Aortic C20:4” value came to 8.5 nmol/mg protein and the “Aortic CE-O(O)H” value was determined as 2.8 pmol/mg protein. Moreover, in test [2] (Bisphenol [high]), the “Aortic CE-O(O)H/LH” value is given as 0.002 ratio ×10^3, the “Aortic α-TOH” value came to 586 pmol/mg protein and the “Aortic α-TQ” value is 3.5 pmol/mg protein. For the same molecule, the “Aortic Ascorbate” value in test [2] (Bisphenol [high] (plasma 212±50 μM)) stood at 2570 pmol/mg protein. Further, in test [2] (Bisphenol [low]), the “Aortic C” value is on record as 204 nmol/mg protein, the “Aortic C18:2” value stood at 21.0 nmol/mg protein, the “Aortic C20:4” value was found to be 12.7 nmol/mg protein and the “Aortic CE-O(O)H” value is listed as 14.1 pmol/mg protein. Besides, in test [2] (Bisphenol [low]), the “Aortic CE-O(O)H/LH” value came out at 0.145 ratio ×10^3, the “Aortic α-TOH” value was found to be 669 pmol/mg protein and the “Aortic α-TQ” value is reported as 4.9 pmol/mg protein. For the same molecule, the “Aortic Ascorbate” value in test [2] (Bisphenol [low] (plasma 106±40 μM)) was 3204 pmol/mg protein. In addition, the “level of aortic oxidised lipids lower than control” value in test [2] (animals with high plasma levels of bisphenol) is listed as 1000 fold. The “level of aortic oxidised lipids lower than control” value in test [2] (animals with low plasma levels of bisphenol) was determined as 10 fold.
Take `CC(C)(Sc1cc(C(C)(C)C)c(O)c(C(C)(C)C)c1)Sc1cc(C(C)(C)C)c(O)c(C(C)(C)C)c1` [Probucol, probucol]: the “Re-endothelialized area, Abdominal Aorta” value was 55.1 ± 7.1** % total surface area in test [3] (setting [4]) and 48.2 ± 9.0*** % total surface area in test [3] (setting [5]). For the same molecule, the figures for the “Re-endothelialized area, Thoracic Aorta” value in test [3] (setting [4]) and in test [3] (setting [5]) were 57.3 ± 5.1* % total surface area and 50.4 ± 6.4** % total surface area, respectively.

These data come from patent US20020115728A1, “Compositions and methods for treating cardiovascular disorders” (priority 2000, published 2002).
